According to US20260306644A1, “ANTIBODY RECRUITING MOLECULES FOR THE TREATMENT OF CORONAVIRUS DISEASE-19” (priority 2023, published 2026):
pEC50, pIC50: −log10 of the molar value. Several values for one entry are separate records, joined by “and”; a condition that tells them apart may be missing. Equal values may be shown once. Read-outs that look alike come from different tables or passages of the source. Positions of bridges follow the written chain, without caps; N, C: chain ends. Non-standard residues stand in square brackets, D forms with d. Residues, ends and D or L forms follow the SMILES beside them. No end group written: not given here. *: point of attachment. X1 = O=C(CCCC[C@@H]1SC[C@@H]2NC(=O)N[C@@H]21)NCCOCCOCCOCCOCCN*; Biotin = O=C1N[C@H]2[C@H](CS[C@H]2CCCCC(=O)*)N1; PEG4 = NCCOCCOCCOCCOCCC(=O)O; hCys = N[C@@H](CCS)C(=O)O; Nle = CCCC[C@H](N)C(=O)O; Aib = CC(C)(N)C(=O)O

What was measured:
[1] = target: T1, SARS-CoV-2 Spike Glycoprotein RBD protein (Severe acute respiratory syndrome coronavirus 2, UniProt P0DTC2); experiment: Binding of biotinylated ligands to SARS-CoV-2 Spike Glycoprotein RBD protein by ELISA
T1 construct: SARS-CoV-2 (COVID-19) S Protein RBD, His Tag; purchased Acro Biosystems SPD-C52H3
Procedure: Materials. The binding affinity of biotinylated ligands to SARS-CoV-2 Spike Glycoprotein RBD protein was determined by ELISA. The binding assay was performed using the following steps: (1) assay plates (PE B&W Isoplate 96-well Flat Bottom, High Bindi-g - Perkin Elmer 6005580) were coated with 100 ul Anti-6× His tag antibody (Anti-6× His tag Antibody; Abcam ab15149, Mouse Monoclonal; Cambridge, UK) at 5 μg/ml in PBS, incubate 1 hour at 37° C. without shaking. The plates were washed (each wash step of this assay includes four 1-minute washes with 200 ul phosphate-buffered saline-0.05% (w/v) Tween® 20 detergent (PBST)). (2) Plates were blocked with 200 ul PBST-5% BSA (PBSTB; American Bio AB01088-00100; Canton, MA), for an hour at room temperature on a plate shaker (400 rpm). The plates were washed. […] The plates were washed. (4) Ligands were added, 100 ul at a concentration range of 0.1 mM to 100 nM in PBSTB, and incubated for 1 hour at room temperature on a plate shaker (200 RPM). The plates were washed. (5) NeutrAvidin™-HRP (Invitrogen 31030; Waltham, MA) is added, 100 ul at a dilution of 1:20,000 in PBSTB, and incubated for 1 hour at room temperature on a plate shaker (200 RPM). The plates were washed. (6) SuperSignal ELISA Pico Chemiluminescent Substrate (Thermo Scientific 37069; Waltham, MA) was added and incubated for 5 minutes at room temperature on a plate shaker (200 RPM).

SARS-CoV-2 Spike protein = SARS-CoV-2 Spike protein (Severe acute respiratory syndrome coronavirus 2, UniProt P0DTC2); experiment: Ternary binding of SARS-CoV-2 Spike protein (293T cells expressing Spike-GFP, IgG-AF647, flow cytometry); assay type: cell-based; details: IgG-AF647 10 μg/ml, repeat values/batches listed separately
[2] = system: live SARS-CoV-2 Virus (wildtype); experiment: Neutralization of live SARS-CoV-2 virus, wildtype (Vero E6 cells, nucleoprotein ELISA); assay type: cell-based; details: live virus neutralization, isolate Seattle WA (IITRI), Vero E6
[3] = target: T2, SARS-CoV-2 Spike A (wild-type) (Severe acute respiratory syndrome coronavirus 2, UniProt P0DTC2); experiment: MSD ACE2 competition assay (inhibition of Spike binding with ACE2, ECL), A (wild-type); details: IC50 Wild Type, Wild Type Spike
T2 construct: purchased Meso Scale Diagnostics, LLC V-PLEX SARS-CoV-2 Panel 13 (ACE2) Kit / Panel 23 (ACE2) Kit

[4] = ELISA, biotinylated ligands, Spike RBD, read-out: ELISA SARS-CoV-2 Spike RBD Protein Binding EC50
[5] = 293T cells expressing Spike-GFP, read-out: SARS-CoV-2 Ternary binding EC50

| Molecule | pEC50 [1, 4] | pEC50 (SARS-CoV-2 Spike protein; [5]) | other results |
| --- | --- | --- | --- |
| CC[C@H](C)[C@H](NC(=O)[C@H](CC(C)C)NC(=O)[C@H](CC(=O)O)NC(=O)[C@H](CO)NC(=O)[C@@H](NC(=O)[C@H](CCCNC(=N)N)NC(=O)[C@H](CCSC)NC(=O)[C@H](CO)NC(=O)[C@H](C)NC(=O)[C@@H]1CCCN1C(=O)[C@H](C)NC(=O)[C@H](Cc1c[nH]cn1)NC(=O)CNC(=O)[C@H](CC(C)C)NC(=O)[C@H](CCC(=O)O)NC(=O)[C@H](CC(=O)O)NC(=O)[C@H](CC(C)C)NC(=O)[C@H](CC(C)C)NC(=O)[C@H](CCCNC(=N)N)NC(=O)[C@H](CCSC)NC(=O)[C@@H](NC(=O)[C@H](CCC(=O)O)NC(=O)[C@H](Cc1ccc(O)cc1)NC(=O)[C@@H](NC(=O)[C@H](CCCCN)NC(=O)[C@H](CCC(N)=O)NC(=O)[C@H](CC(C)C)NC(=O)[C@@H](NC(=O)[C@H](Cc1c[nH]c2ccccc12)NC(=O)[C@H](CCC(=O)O)NC(=O)[C@H](CCCCN)NC(=O)[C@H](CC(=O)O)NC(=O)CCOCCOCCOCCOCCNC(=O)CCCC[C@@H]1SC[C@@H]2NC(=O)N[C@@H]21)[C@@H](C)CC)[C@@H](C)CC)[C@@H](C)CC)C(C)C)C(=O)N[C@@H](Cc1ccc(O)cc1)C(=O)N[C@@H](CCC(=O)O)C(=O)N[C@@H](Cc1ccccc1)C(=O)N[C@@H](CCSC)C(=O)N[C@@H](CCCCN)C(=O)N[C@@H](CCCCN)C(=O)NCC(=O)N[C@@H](CC(=O)O)C(=O)N[C@@H](CCC(=O)O)C(=O)N[C@@H](CCCNC(=N)N)C(=O)N[C@@H](CC(C)C)C(=O)N[C@@H](CC(C)C)C(=O)N[C@@H](CCC(=O)O)C(=O)N[C@@H](CCC(=O)O)C(=O)N[C@@H](C)C(=O)N[C@@H](CCC(=O)O)C(=O)N[C@@H](CCCNC(=N)N)C(=O)N[C@@H](CC(C)C)C(=O)N[C@@H](CC(C)C)C(=O)N[C@@H](CCC(=O)O)C(=O)N[C@@H](CCC(=O)O)C(=O)N[C@H](C(=O)N[C@@H](CCC(=O)O)C(=O)N[C@@H](CCCNC(=N)N)C(N)=O)C(C)C [Compound 187] | – | – | pEC50 [1]: 9.43; pEC50 (SARS-CoV-2 Spike protein; SARS-CoV-2 Ternary binding EC50, 293T cells expressing Spike-GFP): 10.15 |
| CC[C@H](C)[C@H](NC(=O)[C@H](CC(C)C)NC(=O)[C@H](CC(=O)O)NC(=O)[C@H](CO)NC(=O)[C@@H](NC(=O)[C@H](CCCNC(=N)N)NC(=O)[C@H](CCSC)NC(=O)[C@H](CO)NC(=O)[C@H](C)NC(=O)[C@@H]1CCCN1C(=O)[C@H](C)NC(=O)[C@H](Cc1c[nH]cn1)NC(=O)CNC(=O)[C@H](CC(C)C)NC(=O)[C@H](CCC(=O)O)NC(=O)[C@H](CC(=O)O)NC(=O)[C@H](CC(C)C)NC(=O)[C@H](CC(C)C)NC(=O)[C@H](CCCNC(=N)N)NC(=O)[C@H](CCSC)NC(=O)[C@@H](NC(=O)[C@H](CCC(=O)O)NC(=O)[C@H](Cc1ccc(O)cc1)NC(=O)[C@@H](NC(=O)[C@H](CCCCN)NC(=O)[C@H](CCC(N)=O)NC(=O)[C@H](CC(C)C)NC(=O)[C@@H](NC(=O)[C@H](Cc1c[nH]c2ccccc12)NC(=O)[C@H](CCC(=O)O)NC(=O)[C@H](CCCCN)NC(=O)[C@H](CC(=O)O)NC(=O)[C@H](CO)NC(=O)CCOCCOCCOCCOCCNC(=O)CCCC[C@@H]1SC[C@@H]2NC(=O)N[C@@H]21)[C@@H](C)CC)[C@@H](C)CC)[C@@H](C)CC)C(C)C)C(=O)N[C@@H](Cc1ccc(O)cc1)C(=O)N[C@@H](CCC(=O)O)C(=O)N[C@@H](Cc1ccccc1)C(=O)N[C@@H](CCSC)C(=O)N[C@@H](CCCCN)C(=O)N[C@@H](CCCCN)C(=O)NCC(N)=O [Compound 193] ({Biotin-PEG4}-SDKEWILQKIYEIMRLLDELGHAPASMRVSDLIYEFMKKG-NH2) | 8.34 | 8.64 and 9.62 | – |
| CC[C@H](C)[C@H](NC(=O)[C@H](CC(C)C)NC(=O)[C@H](CC(=O)O)NC(=O)[C@H](CO)NC(=O)[C@@H](NC(=O)[C@H](CCCNC(=N)N)NC(=O)[C@H](CCSC)NC(=O)[C@H](CO)NC(=O)[C@H](C)NC(=O)[C@H](CCC(=O)O)NC(=O)[C@H](C)NC(=O)[C@H](Cc1c[nH]cn1)NC(=O)CNC(=O)[C@H](CC(C)C)NC(=O)[C@H](CCC(=O)O)NC(=O)[C@H](CC(=O)O)NC(=O)[C@H](CC(C)C)NC(=O)[C@H](CC(C)C)NC(=O)[C@H](CCCNC(=N)N)NC(=O)[C@H](CCSC)NC(=O)[C@@H](NC(=O)[C@H](CCC(=O)O)NC(=O)[C@H](Cc1ccc(O)cc1)NC(=O)[C@@H](NC(=O)[C@H](CCCCN)NC(=O)[C@H](CCC(N)=O)NC(=O)[C@H](CC(C)C)NC(=O)[C@@H](NC(=O)[C@H](Cc1c[nH]c2ccccc12)NC(=O)[C@H](CCC(=O)O)NC(=O)[C@H](CCCCN)NC(=O)[C@H](CC(=O)O)NC(=O)[C@H](CO)NC(=O)C(C)(C)NC(=O)CCOCCOCCOCCOCCNC(=O)CCCC[C@@H]1SC[C@@H]2NC(=O)N[C@@H]21)[C@@H](C)CC)[C@@H](C)CC)[C@@H](C)CC)C(C)C)C(=O)N[C@@H](Cc1ccc(O)cc1)C(=O)N[C@@H](CCC(=O)O)C(=O)N[C@@H](Cc1ccccc1)C(=O)N[C@@H](CCSC)C(=O)N[C@@H](CCCCN)C(=O)N[C@@H](CCCCN)C(=O)N[C@H](Cc1ccccc1)C(=O)O [Compound 216] | 8.95 | 9.34 | – |
| CCCC[C@H](NC(=O)[C@H](CCC(=O)O)NC(=O)[C@H](CC(=O)O)NC(=O)[C@H](CC(C)C)NC(=O)[C@H](CC(C)C)NC(=O)[C@H](CCCNC(=N)N)NC(=O)[C@H](CCSC)NC(=O)[C@@H](NC(=O)[C@H](CCC(=O)O)NC(=O)[C@H](Cc1ccc(O)cc1)NC(=O)[C@@H](NC(=O)[C@H](CCCCN)NC(=O)[C@H](CCC(N)=O)NC(=O)[C@H](CC(C)C)NC(=O)[C@@H](NC(=O)[C@H](Cc1c[nH]c2ccccc12)NC(=O)[C@H](CCC(=O)O)NC(=O)[C@H](CCCCN)NC(=O)[C@H](CC(=O)O)NC(=O)CCOCCOCCOCCOCCNC(=O)CCCC[C@@H]1SC[C@@H]2NC(=O)N[C@@H]21)[C@@H](C)CC)[C@@H](C)CC)[C@@H](C)CC)C(=O)N[C@H](Cc1c[nH]cn1)C(=O)N[C@@H](Cc1c[nH]cn1)C(=O)N[C@@H](C)C(=O)N[C@@H](CCC(=O)O)C(=O)N[C@@H](C)C(=O)N[C@@H](CO)C(=O)N[C@@H](CCSC)C(=O)N[C@@H](CCCNC(=N)N)C(=O)N[C@H](C(=O)N[C@@H](CO)C(=O)N[C@@H](CC(=O)O)C(=O)N[C@@H](CC(C)C)C(=O)N[C@H](C(=O)N[C@@H](Cc1ccc(O)cc1)C(=O)N[C@@H](CCC(=O)O)C(=O)N[C@@H](Cc1ccccc1)C(=O)N[C@@H](CCSC)C(=O)N[C@@H](CCCCN)C(=O)N[C@@H](CCCCN)C(=O)NCC(=O)O)[C@@H](C)CC)C(C)C [Compound 222] | 9.10 | 10.70 | – |
| CC[C@H](C)[C@@H]1NC(=O)[C@H](Cc2c[nH]c3ccccc23)NC(=O)[C@H](CCC(=O)O)NC(=O)CSCC[C@@H](C(=O)NCCOCCOCCOCCOCCNC(=O)CCCC[C@@H]2SC[C@@H]3NC(=O)N[C@@H]32)NC(=O)[C@H](CCCCN)NC(=O)[C@H](CCCCN)NC(=O)[C@H](CCSC)NC(=O)[C@H](Cc2ccccc2)NC(=O)[C@H](CCC(=O)O)NC(=O)[C@H](Cc2ccc(O)cc2)NC(=O)[C@H]([C@@H](C)CC)NC(=O)[C@H](CC(C)C)NC(=O)[C@H](CC(=O)O)NC(=O)[C@H](CO)NC(=O)[C@H](C(C)C)NC(=O)[C@H](CCCNC(=N)N)NC(=O)[C@H](CCSC)NC(=O)[C@H](CO)NC(=O)[C@H](C)NC(=O)[C@H](CCC(=O)O)NC(=O)[C@H](C)NC(=O)[C@H](Cc2c[nH]cn2)NC(=O)CNC(=O)[C@H](CC(C)C)NC(=O)[C@H](CCC(=O)O)NC(=O)[C@H](CC(=O)O)NC(=O)[C@H](CC(C)C)NC(=O)[C@H](CC(C)C)NC(=O)[C@H](CCCNC(=N)N)NC(=O)[C@H](CCSC)NC(=O)[C@H]([C@@H](C)CC)NC(=O)[C@H](CCC(=O)O)NC(=O)[C@H](Cc2ccc(O)cc2)NC(=O)[C@H]([C@@H](C)CC)NC(=O)[C@H](CCCCN)NC(=O)[C@H](CCC(N)=O)NC(=O)[C@H](CC(C)C)NC1=O [Compound 251] ({CH2CO}-EWILQKIYEIMRLLDELGHAEASMRVSDLIYEFMKK[hCys]-X1; thioether N-37) | 9.04 | 10.10 | – |
| DKEWILQKIYEIMRLLDELGHAEASMRVSDLIYEFMKKGDERLLEEAERLLEEVERDCAWHLGELVWCT (disulfide 58-68) [Compound 111] | – | – | pEC50 [2]: 9.85; pIC50 [3]: 8.86 |
| {Biotin-PEG4}-[Aib]SDKEWILQKIYEIMRLLDELGHAEAS[Nle]RVSDLIY[Aib]FMK[Aib]G [Compound 218] | 8.62 | 10.00 | – |
